The record followed here is patent publication US20210323950A1, “HERBICIDALLY ACTIVE BICYCLIC BENZOYLPYRAZOLES” (Bayer Aktiengesellschaft, priority 2018, published 2021).

Type in all cases: in vivo
Assay [1] concerns Setaria viridis (SETVI). Kind of assay: Post-emergence herbicidal action against SETVI. Particulars: 20 g/ha, post-emergence at one-leaf stage, rated visually after about 3 weeks vs untreated controls. In a few lines: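 Monocot and dicot weeds grown in sandy loam in greenhouse, sprayed post-emergence at one-leaf stage (2–3 weeks after sowing) with WP or EC formulations in water plus 0.5% additive at […] (converted). Visual rating after about 3 weeks versus untreated controls; 100% = plants dead, 0% = like control.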

The test system of assay [2] is Amaranthus retroflexus (AMARE). Kind of assay: Pre-emergence herbicidal action against AMARE. As to conditions: scored visually after about 3 weeks vs untreated controls. In a few lines:
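Formulated compounds (WP or EC) sprayed onto soil covering sown seeds, with 0.5% additive at […] water (converted). Greenhouse-grown about 3 weeks, then damage scored visually as percent versus untreated controls (100% = dead, 0% = like control).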

The subject of the next assay is Stellaria media (STEME). The assay can be described thus: Pre-emergence herbicidal action against STEME. Particulars: scored visually after about 3 weeks vs untreated controls. In a few lines: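 Weed seeds are sown in pots under soil, and WP or EC formulations are applied pre-emergence to the soil surface as an aqueous suspension or emulsion with 0.5% additive. After about 3 weeks in the greenhouse, effect is scored visually as % versus untreated controls (100% = plants dead, 0% = like control).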

Assay [3] relates to Setaria viridis (SETVI). Kind of assay: Pre-emergence herbicidal action against SETVI. As to conditions: scored visually after about 3 weeks vs untreated controls.
The subject of assay [4] is Viola tricolor (VIOTR). Kind of assay: Pre-emergence herbicidal action against VIOTR. As to conditions: scored visually after about 3 weeks vs untreated controls. In a few lines: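 Seeds were sown in pots and covered with soil. After ~3 weeks in the greenhouse, effect was scored visually versus untreated controls (100% = plants dead, 0% = like control).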
Assay [5] concerns Viola tricolor (VIOTR). The assay can be described thus: Post-emergence herbicidal action against VIOTR. As to conditions: 20 g/ha, post-emergence at one-leaf stage, rated visually after about 3 weeks vs untreated controls. The protocol:
(§1) VIOTR: Viola tricolor 2. Post-Emergence Herbicidal Action and Crop Plant Compatibility Seeds of monocotyledonous and dicotyledonous weeds and crop plants are placed in sandy loam in plastic or organic planting pots, covered with soil and cultivated in a greenhouse under controlled growth conditions. 2 to 3 weeks after sowing, the test plants are treated at the one-leaf stage. The compounds of the invention, formulated in the form of wettable powders (WP) or as emulsion concentrates (EC), are then sprayed onto the green parts of the plants as aqueous suspension or emulsion with addition of 0.5% additive at a water application rate of […] (converted). After the test plants had been kept in the greenhouse under optimum growth conditions for about 3 weeks, the activity of the preparations is rated visually in comparison to untreated controls. The tables below show the herbicidal activity of numerous compounds according to the invention against important harmful plants. For example, 100% activity=the plants have died, 0% activity=like control plants.

Another assay has as its system Veronica persica (VERPE). Kind of assay: Post-emergence herbicidal action against VERPE. As to conditions: 20 g/ha, post-emergence at one-leaf stage, rated visually after about 3 weeks vs untreated controls. Here is the method: as §1, with “VERPE: Veronica persica” for “VIOTR: Viola tricolor”

For the molecule `Cn1ncc(C(=O)c2ccc(C(F)(F)F)c3c2OCS3)c1O` [Example 1-13], in the assay with Setaria viridis (SETVI) [1], the “Post-emergence action against SETVI” value was 100%. In assay [2] (320 g/ha), the “Pre-emergence action against AMARE” value came out at 100%. Besides, the “Pre-emergence action against STEME” value with Stellaria media (STEME) (320 g/ha) is on record as 100%. Further, the “Pre-emergence action against SETVI” value in the assay with Setaria viridis (SETVI) [3] (320 g/ha) turned out to be 100%. Besides, the “Pre-emergence action against VIOTR” value in the assay on Viola tricolor (VIOTR) [4] (320 g/ha) worked out at 100%.

On to `Cn1ncc(C(=O)c2ccc(C(F)(F)F)c3c2OCCS3)c1O` [Example 1-15], for which the “Post-emergence action against SETVI” value in the assay on Setaria viridis (SETVI) [1] stood at 80%. Further, the “Pre-emergence action against AMARE” value in assay [2] (80 g/ha) was 100%. Also, the “Pre-emergence action against STEME” value in the assay on Stellaria media (STEME) (80 g/ha) stood at 100%. For the same molecule, in the assay on Setaria viridis (SETVI) [3] (80 g/ha), the “Pre-emergence action against SETVI” value was 100%. In the assay on Viola tricolor (VIOTR) [5], the “Post-emergence action against VIOTR” value stood at 80%. Further, the “Pre-emergence action against VIOTR” value in the assay on Viola tricolor (VIOTR) [4] (80 g/ha) is reported as 100%.

As for `Cn1ncc(C(=O)c2ccc(C(F)(F)F)c3c2OC[S+]3[O-])c1O` (stereo not shown) [Example 1-28], the “Post-emergence action against SETVI” value in the assay on Setaria viridis (SETVI) [1] came out at 90%. Also, in the assay on Stellaria media (STEME) (320 g/ha), the “Pre-emergence action against STEME” value is 100%. Also, the “Pre-emergence action against SETVI” value with Setaria viridis (SETVI) [3] (320 g/ha) is reported as 100%. Further, the “Post-emergence action against VIOTR” value in the assay on Viola tricolor (VIOTR) [5] came out at 90%. Further, the “Post-emergence action against VERPE” value in the assay on Veronica persica (VERPE) came out at 90%. In the assay on Viola tricolor (VIOTR) [4] (320 g/ha), the “Pre-emergence action against VIOTR” value came to 100%.

For `Cn1ncc(C(=O)c2ccc(C(F)(F)F)c3c2OCC[S+]3[O-])c1O` (stereo not shown) [Example 1-30], in the assay on Setaria viridis (SETVI) [1], the “Post-emergence action against SETVI” value is given as 90%. In assay [2] (80 g/ha), the “Pre-emergence action against AMARE” value is 100%. For the same molecule, the “Pre-emergence action against STEME” value in the assay on Stellaria media (STEME) (80 g/ha) stood at 100%. Moreover, the “Pre-emergence action against SETVI” value with Setaria viridis (SETVI) [3] (80 g/ha) came out at 100%. Besides, the “Post-emergence action against VIOTR” value in the assay on Viola tricolor (VIOTR) [5] came to 90%. For the same molecule, the “Pre-emergence action against VIOTR” value in the assay on Viola tricolor (VIOTR) [4] (80 g/ha) is given as 100%.

Consider `CCn1ncc(C(=O)c2ccc(C(F)(F)F)c3c2OCC[S+]3[O-])c1O` (stereo not shown) [Example 1-35], for which the “Post-emergence action against SETVI” value in the assay with Setaria viridis (SETVI) [1] worked out at 100%. Further, the “Pre-emergence action against AMARE” value in assay [2] (80 g/ha) is reported as 100%. The “Pre-emergence action against STEME” value in the assay on Stellaria media (STEME) (80 g/ha) is reported as 100%. For the same molecule, the “Pre-emergence action against SETVI” value in the assay on Setaria viridis (SETVI) [3] (80 g/ha) was 100%. The “Post-emergence action against VIOTR” value in the assay on Viola tricolor (VIOTR) [5] is listed as 100%. Further, the “Pre-emergence action against VIOTR” value in the assay on Viola tricolor (VIOTR) [4] (80 g/ha) was 100%.

For `Cc1nn(C)c(O)c1C(=O)c1ccc(C(F)(F)F)c2c1OCC[S+]2[O-]` (stereo not shown) [Example 1-40], the “Post-emergence action against SETVI” value in the assay on Setaria viridis (SETVI) [1] is on record as 80%. Besides, in assay [2] (80 g/ha), the “Pre-emergence action against AMARE” value was 100%. In addition, the “Pre-emergence action against STEME” value in the assay on Stellaria media (STEME) (80 g/ha) is recorded as 100%. The “Pre-emergence action against SETVI” value in the assay on Setaria viridis (SETVI) [3] (80 g/ha) came to 100%. Further, in the assay with Viola tricolor (VIOTR) [5], the “Post-emergence action against VIOTR” value is reported as 80%.

On to `Cn1ncc(C(=O)c2ccc(C(F)(F)F)c3c2OCCS3(=O)=O)c1O` [Example 1-45], for which the “Pre-emergence action against AMARE” value in assay [2] (80 g/ha) was determined as 100%. Also, the “Pre-emergence action against STEME” value with Stellaria media (STEME) (80 g/ha) amounted to 100%. Also, the “Pre-emergence action against SETVI” value in the assay on Setaria viridis (SETVI) [3] (80 g/ha) is on record as 100%. Moreover, in the assay on Viola tricolor (VIOTR) [5], the “Post-emergence action against VIOTR” value is given as 90%. Further, the “Post-emergence action against VERPE” value with Veronica persica (VERPE) worked out at 90%. Besides, the “Pre-emergence action against VIOTR” value in the assay with Viola tricolor (VIOTR) [4] (80 g/ha) is given as 100%.

On to `CCn1ncc(C(=O)c2ccc(C(F)(F)F)c3c2OCCS3(=O)=O)c1O` [Example 1-50], for which the “Post-emergence action against SETVI” value with Setaria viridis (SETVI) [1] was 80%. Besides, the “Pre-emergence action against AMARE” value in assay [2] (80 g/ha) is recorded as 100%. For the same molecule, the “Pre-emergence action against STEME” value in the assay with Stellaria media (STEME) (80 g/ha) is 100%. Also, the “Pre-emergence action against SETVI” value with Setaria viridis (SETVI) [3] (80 g/ha) is recorded as 100%.

As to `Cc1nn(C)c(O)c1C(=O)c1ccc(C(F)(F)F)c2c1OCCS2(=O)=O` [Example 1-55], in assay [2] (80 g/ha), the “Pre-emergence action against AMARE” value is on record as 100%. Further, the “Pre-emergence action against STEME” value with Stellaria media (STEME) (80 g/ha) is 100%. Further, the “Post-emergence action against VIOTR” value in the assay with Viola tricolor (VIOTR) [5] came out at 80%. Moreover, the “Pre-emergence action against VIOTR” value with Viola tricolor (VIOTR) [4] (80 g/ha) is 90%.

With `Cn1nc(C2CC2)c(C(=O)c2ccc(C(F)(F)F)c3c2OCC[S+]3[O-])c1O` (stereo not shown) [Example 1-116], the “Post-emergence action against SETVI” value in the assay on Setaria viridis (SETVI) [1] was 90%. In addition, the “Pre-emergence action against AMARE” value in assay [2] (80 g/ha) came out at 100%. Also, in the assay with Stellaria media (STEME) (80 g/ha), the “Pre-emergence action against STEME” value is listed as 100%. The “Pre-emergence action against SETVI” value in the assay on Setaria viridis (SETVI) [3] (80 g/ha) worked out at 100%. Also, the “Pre-emergence action against VIOTR” value with Viola tricolor (VIOTR) [4] (80 g/ha) is recorded as 100%.

In the case of `Cn1ncc(C(=O)c2ccc(C(F)(F)C(F)(F)F)c3c2OCS3)c1O` [Example 1-128], the “Post-emergence action against SETVI” value in the assay with Setaria viridis (SETVI) [1] came out at 90%. Further, in assay [2] (80 g/ha), the “Pre-emergence action against AMARE” value turned out to be 100%. Besides, the “Pre-emergence action against STEME” value with Stellaria media (STEME) (80 g/ha) turned out to be 100%. Also, the “Pre-emergence action against SETVI” value in the assay with Setaria viridis (SETVI) [3] (80 g/ha) is listed as 100%. Further, the “Pre-emergence action against VIOTR” value in the assay with Viola tricolor (VIOTR) [4] (80 g/ha) was 100%.
